Consider 2 compounds from patent EP2659887A1, “Use of A-ring aromatic acetyl minocycline and pharmaceutical preparations derived from same for treatment and prevention of inflammation, autoimmune disorders and rejection of transplants” (priority 2012, dated 2013).

The test system of data set [1] is humane T-Lymphozyten. In words: Viability of stimulated human T lymphocytes (CellTiter-Blue Cell Viability Assay). The conditions noted are these: up to 5,0 µM; PWM (Figur 2A) or anti-CD3 (Figur 2B) stimulation. Here is the method:
Humane T-Lymphozyten wurden in serumfreiem Kulturmedium mit anti-CD3-Antikörpern (Klon OKT3) bzw. mit Pokeweed-Mitogen (PWM, 2 µg/ml) in An- und Abwesenheit verschiedener Konzentrationen von Minocyclin oder Pentaacetylcyclin stimuliert. Die Ermittlung der Proliferation (DNS-Synthese) der Zellen erfolgte nach 72 Stunden über den Einbau von 3H-Thymidin. Zur Überprüfung der Vitalität der Zellkulturen wurde der CeIITiter-Blue® Cell Viability-Assay (Promega) verwendet.
In general terms: The colour change of resazurin is a common sign of viable cells or microbes.

The test system of data set [2] is Splenozyten (Milzzellen) von SJL/J-Mäusen. In words: Proliferation (DNA synthesis, 3H-thymidine incorporation) of stimulated mouse splenocytes. The data set is classed as cell-based, Maus. The conditions noted are these: 2,5 bzw. 5,0 µM. How it is done:
(§1) In weiteren in vitro-Untersuchungen dienten Splenozyten (Milzzellen) von SJL/J-Mäusen zur Testung der immunmodulatorischen/immunsuppressiven Wirkung der Testsubstanzen. Nach Stimulation der Splenozyten mit Pokeweed-Mitogen (PWM, 1 μg/ml) oder mit […] (Klon 145-2C11, BD Biosciences) erfolgte die Inkubation dieser Immunzellen in An- oder Abwesenheit verschiedener Konzentrationen von Minocyclin und Pentaacetylcyclin. Die anschließende Proliferation (DNS-Synthese) der Zellen wurde nach 72 Stunden über den Einbau von […]-Blue® Cell Viability-Assays (Promega).
A general note: Uptake of a labelled nucleoside into DNA is a usual measure of proliferation.

Data set [3] has as its system humane T-Lymphozyten. In words: Proliferation (DNA synthesis, 3H-thymidine incorporation) of stimulated human T lymphocytes. In kind it is cell-based. As to conditions: remaining proliferation; PWM or anti-CD3 stimulation, 2,5 bis 5,0 µM. The source says:
In in vitro-Untersuchungen dienten humane T-Lymphozyten des peripheren Blutes gesunder Spender zur Testung der immunmodulatorischen/immunsuppressiven Wirkung der Testsubstanzen. Eine gesteigerte Zellteilung/Proliferation dieser Immunzellen nach Stimulation simuliert in vitro eine Entzündungsreaktion. Eine Verringerung dieser stimulierten Proliferation durch applizierte Substanzen veranschaulicht deren immunmodulatorischen/immunsuppressiven Eigenschaften.

Data set [4] has as its system Experimentelle Autoimmune Enzephalomyelitis (EAE). In words: Number of inflammatory immune cell infiltrates in the spinal cord after EAE (histology). The data set is classed as in vivo, SJL/J-Mäusen. As to conditions: intraperitoneal or oral, 100 µg/Tag, Tag 13 bis Tag 17; analysis Tag 20. An excerpt: Als Folge einer T-Lymphozyten-Aktivierung und -Differenzierung kommt es bei der EAE zu einer massiven Einwanderung (Infiltration) von Immunzellen in das Rückenmark der Mäuse. Diese Immunzellen vermitteln durch Demyeliniserung und neuronale Schädigung die weitere Erkrankung und lassen sich auf histologischen Schnitten als entzündliche Infiltrate darstellen und analysieren. Die Stärke der Infiltration von Immunzellen in das Rückenmark während der EAE korreliert im Allgemeinen mit dem Schweregrad der EAE-Erkrankung.
Deshalb erfolgte die histologische Analyse der entzündlichen Infiltrate im Rückenmark von SJL/J-Mäusen nach EAE und 5-tägiger therapeutischer Applikation von Minocycline bzw. Pentaacetylcyclin.
Die EAE wurde in SJL/J-Mäusen durch Immunisierung mit einem Myelinprotein-Peptid (Proteolipid-Protein 139-151, PLP 139-151) induziert. Die Applikation von Minocyclin, Pentaacetylcyclin und einem Kontroll-Vehikel erfolgte in einem therapeutischen Ansatz (nach eindeutiger Ausbildung der EAE-Erkrankung) in zwei getrennten Versuchsansätzen: • 1.) intraperitoneal (i.p., 100 µg/Tag) von Tag 13 bis Tag 17 • 2.) oral (100 µg/Tag) von Tag 13 bis Tag 17.
Am Tag 20 nach Immunisierung erfolgte die Aufarbeitung des Rückenmarks der Mäuse für histologische Untersuchungen (Paraffin-Schnitte, HE-Färbungen). […]

The subject of data set [5] is Splenozyten (Milzzellen) von SJL/J-Mäusen. The data set can be described thus: Viability of stimulated mouse splenocytes (CellTiter-Blue Cell Viability Assay). The data set is classed as cell-based, Maus. The conditions noted are these: up to 5,0 µM; PWM (Figur 5A) or anti-CD3 (Figur 5B) stimulation. Here is the method:
as §1

The subject of data set [6] is Splenozyten (Milzzellen) der SJL/J-Mäuse. In words: Cytokine release of PWM-stimulated mouse splenocytes (ELISA of culture supernatants). The conditions noted are these: Splenocyte, remaining release at 5,0 µM, 48 h (Figur 6A), read-out: Reduktion der Freisetzung von IFN-γ (auf). The data set is classed as cell-based, Maus. Here is the method:
Zur Verifizierung der an humanen […] in vitro-Untersuchungen an Splenozyten (Milzzellen) der SJL/J-Mäuse. Diese Splenozyten von wurden mit Pokeweed-Mitogen (PWM, 1 μg/ml) stimuliert und in An- oder Abwesenheit verschiedener Konzentrationen von Minocyclin und Pentaacetylcyclin inkubiert. Nach 48 Stunden erfolgte die Analyse der Zellkulturüberstände hinsichtlich der Freisetzung der Zytokine Interferon-y (IFN-y) und Interleukin-17 (IL-17) mittels spezifischer ELISA (R&D Systems).
(In general: In an ELISA, binding on a coated surface is turned into a signal by an enzyme label.)

Data set [7] concerns humane T-Lymphozyten. In words: Cytokine production of PWM-stimulated human T lymphocytes (ELISA of culture supernatants). In kind it is cell-based. As to conditions: PWM 2 µg/ml, 48 h. An excerpt:
Zytokine stellen Indikatoren für die Stärke einer Entzündungsreaktion dar und sind aktive Regulatoren der Differenzierung und Proliferation von T-Lymphozyten. Aus diesem Grund lassen sich aus den in einem in vitro-Testsystem gewonnenen Daten zur Produktion/Freisetzung von Zytokinen detailliertere Aussagen über die immunmodulierenden/immunsuppressiven Eigenschaften von Testsubstanzen herleiten.
Anschließend erfolgte die Messung der Konzentrationen von Interferon-y (IFN-y), Interleukin-2 (IL-2) und Interleukin-17 (IL-17) in den Zellkulturüberständen mittels spezifischer ELISA (R&D Systems).

In data set [8] the test system is Experimentelle Autoimmune Enzephalomyelitis (EAE). The data set can be described thus: Experimental autoimmune encephalomyelitis (EAE) mouse model of multiple sclerosis, therapeutic treatment, EAE score. The data set is classed as in vivo, SJL/J-Maus. The conditions noted are these: 100 µg/Tag; for Effekt auf die akute Phase der EAE (EAE-Score): intraperitoneal, Tag 12 bis Tag 20, therapeutic.
From the text: Als Maß für die Wirkung der therapeutischen Applikation wurde täglich der Schweregrad der EAE-Erkrankung (EAE-Score) bestimmt.

Take `CN(C)c1ccc(O)c2c1C[C@H]1C[C@H]3[C@H](N(C)C)C(O)=C(C(N)=O)C(=O)[C@@]3(O)C(O)=C1C2=O` [Minocyclin]: in the data set with humane T-Lymphozyten [1], the “Vitalität der T-Lymphozyten” value is “nicht beeinträchtigt”.

As to `CC(=O)NC(=O)c1c(OC(C)=O)c2c(c(N(C)C)c1OC(C)=O)CC1Cc3c(N(C)C)ccc(OC(C)=O)c3C(=O)C1=C2OC(C)=O` (centres unmarked) [Pentaacetylcyclin], the “Proliferation (DNS-Synthese) stimulierter Splenozyten” value in data set [2] (PWM (1 µg/ml) or anti-CD3 (145-2C11) stimulation, 72 h) was “signifikante Hemmung”. The “reduzierte Zellteilung (bis auf)” value is on record as “ca. 30%” in data set [2] (remaining proliferation, 4320 min) and “ca. 20%” with humane T-Lymphozyten [3]. Further, the “Vitalität der T-Lymphozyten” value in the data set on humane T-Lymphozyten [1] is given as “nicht beeinträchtigt”. Moreover, in data set [4], the “Zahl der entzündlichen Infiltrate im Rückenmark” value was “deutliche Verringerung”. Moreover, in data set [5], the “Vitalität der Splenozyten” value is on record as “keine Veränderung”. Also, in data set [6], the activity at 5 µM was about 60%. Further, the “Produktion/Freisetzung von IL-2” value in the data set on humane T-Lymphozyten [7] (2,5 bis 5,0 µM (Figur 3A)) is recorded as “signifikante Hemmung”. The “Produktion/Freisetzung von IFN-γ” value in the data set with humane T-Lymphozyten [7] (2,5 bis 5,0 µM (Figur 3B)) was “signifikante Hemmung”. Also, the “Produktion/Freisetzung von IL-17” value in the data set on humane T-Lymphozyten [7] (2,5 bis 5,0 µM (Figur 3C)) is “signifikante Hemmung”. Moreover, the figures for the “Effekt auf die akute Phase der EAE (EAE-Score)” value in data set [8] and in data set [8] (listed as Pentaacetylminocyclin) were “signifikanten therapeutischen Effekt” and “signifikanten Einfluss”, respectively. Also, the “Einfluss auf die akute Phase der EAE (EAE-Score)” value in data set [8] (oral, Tag 14 bis Tag 22, therapeutic) is “signifikanten Einfluss”.
